The term AC50 denotes the concentration at which the activity in the assay is half-maximal. Low readings indicate greater potency, high ones weaker potency.

The target in one test is D(1A) dopamine receptor (Homo sapiens, UniProt P21728).
Test [1] deals with T1, Estrogen receptor (Homo sapiens, UniProt P03372).
T1 sequence (P03372 whole entry): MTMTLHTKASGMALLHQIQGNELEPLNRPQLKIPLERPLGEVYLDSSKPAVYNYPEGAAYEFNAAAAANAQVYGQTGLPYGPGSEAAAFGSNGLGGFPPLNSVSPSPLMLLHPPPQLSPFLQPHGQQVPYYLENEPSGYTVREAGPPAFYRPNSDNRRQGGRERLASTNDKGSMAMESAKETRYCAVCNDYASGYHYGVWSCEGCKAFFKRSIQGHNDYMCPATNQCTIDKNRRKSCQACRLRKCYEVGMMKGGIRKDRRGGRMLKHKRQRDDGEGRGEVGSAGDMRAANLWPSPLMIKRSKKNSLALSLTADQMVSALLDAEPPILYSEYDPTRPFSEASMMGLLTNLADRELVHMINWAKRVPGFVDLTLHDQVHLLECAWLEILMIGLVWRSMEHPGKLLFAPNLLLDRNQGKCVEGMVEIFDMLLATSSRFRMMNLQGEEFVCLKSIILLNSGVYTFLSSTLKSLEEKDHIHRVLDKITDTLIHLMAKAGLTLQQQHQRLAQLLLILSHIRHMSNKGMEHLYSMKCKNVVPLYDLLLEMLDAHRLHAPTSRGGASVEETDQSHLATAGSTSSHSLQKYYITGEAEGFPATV
In kind it is functional.

Test [2] deals with T1, Estrogen receptor. In kind it is functional. The source holds these as a separate data set.
Test [3] has as its target Synaptic vesicular amine transporter (Rattus norvegicus, UniProt Q01827). In kind it is functional.
Test [4] addresses T2, Oxysterols receptor LXR-alpha (Homo sapiens, UniProt Q13133).
T2 sequence (Q13133 whole entry): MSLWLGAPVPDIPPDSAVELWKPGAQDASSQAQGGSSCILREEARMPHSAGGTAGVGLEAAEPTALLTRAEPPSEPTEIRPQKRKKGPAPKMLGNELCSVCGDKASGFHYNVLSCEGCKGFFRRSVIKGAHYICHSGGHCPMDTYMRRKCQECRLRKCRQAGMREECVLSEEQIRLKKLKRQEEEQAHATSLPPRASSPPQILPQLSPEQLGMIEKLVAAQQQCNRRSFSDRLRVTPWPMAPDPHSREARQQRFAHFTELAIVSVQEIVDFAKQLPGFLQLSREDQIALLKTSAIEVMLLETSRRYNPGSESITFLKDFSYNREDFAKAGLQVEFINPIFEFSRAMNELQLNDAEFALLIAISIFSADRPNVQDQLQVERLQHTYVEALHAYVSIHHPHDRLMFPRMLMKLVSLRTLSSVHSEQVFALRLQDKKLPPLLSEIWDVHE
The format is functional.

Test [5] concerns the target T3, Nuclear receptor subfamily 1 group I member 3 (Homo sapiens, UniProt Q14994).
T3 sequence (Q14994 whole entry): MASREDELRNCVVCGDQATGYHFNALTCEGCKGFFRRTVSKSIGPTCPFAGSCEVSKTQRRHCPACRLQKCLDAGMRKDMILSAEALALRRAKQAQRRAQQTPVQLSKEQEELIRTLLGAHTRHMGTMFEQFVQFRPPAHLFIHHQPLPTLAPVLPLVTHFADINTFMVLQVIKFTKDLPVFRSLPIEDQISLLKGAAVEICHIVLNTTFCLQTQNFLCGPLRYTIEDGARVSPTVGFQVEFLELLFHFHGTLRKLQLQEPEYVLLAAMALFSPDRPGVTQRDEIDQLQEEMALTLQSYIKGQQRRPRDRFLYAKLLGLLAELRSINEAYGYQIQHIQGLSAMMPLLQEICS
In kind it is functional.

Test [6] has as its target T4, Alpha-1A adrenergic receptor (Homo sapiens, UniProt P35348).
T4 sequence (P35348 whole entry): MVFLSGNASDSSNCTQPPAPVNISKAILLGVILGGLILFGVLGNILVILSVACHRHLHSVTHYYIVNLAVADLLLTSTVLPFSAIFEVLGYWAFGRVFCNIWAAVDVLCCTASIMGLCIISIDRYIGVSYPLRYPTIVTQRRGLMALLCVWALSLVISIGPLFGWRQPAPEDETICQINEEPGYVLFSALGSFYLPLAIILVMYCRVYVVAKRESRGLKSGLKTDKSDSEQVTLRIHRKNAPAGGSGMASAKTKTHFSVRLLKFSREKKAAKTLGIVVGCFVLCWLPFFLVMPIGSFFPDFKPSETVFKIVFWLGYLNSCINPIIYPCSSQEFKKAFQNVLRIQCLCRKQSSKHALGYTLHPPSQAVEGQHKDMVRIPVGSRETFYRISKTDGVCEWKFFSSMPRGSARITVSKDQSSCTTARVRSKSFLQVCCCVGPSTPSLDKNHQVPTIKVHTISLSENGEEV
The format is functional, cell-based.

In test [7] the target is T4, Alpha-1A adrenergic receptor. In kind it is functional, cell-based. This is another data set of the same source.
In test [8] the target is T5, Muscarinic acetylcholine receptor M1 (Homo sapiens, UniProt P11229).
T5 sequence (P11229 whole entry): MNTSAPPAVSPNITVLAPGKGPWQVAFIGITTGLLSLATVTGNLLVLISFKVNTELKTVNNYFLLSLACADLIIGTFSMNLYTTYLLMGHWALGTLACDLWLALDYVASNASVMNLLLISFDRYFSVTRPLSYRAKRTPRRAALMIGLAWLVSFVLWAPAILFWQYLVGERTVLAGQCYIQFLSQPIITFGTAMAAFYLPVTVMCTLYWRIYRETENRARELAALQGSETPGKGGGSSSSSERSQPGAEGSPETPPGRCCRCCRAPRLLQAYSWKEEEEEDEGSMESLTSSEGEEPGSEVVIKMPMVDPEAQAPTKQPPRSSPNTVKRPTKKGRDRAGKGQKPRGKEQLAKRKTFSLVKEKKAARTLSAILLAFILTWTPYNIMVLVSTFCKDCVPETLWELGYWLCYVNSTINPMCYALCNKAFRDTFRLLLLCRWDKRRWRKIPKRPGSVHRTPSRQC

For another test, the target named is T6, Adenosine receptor A1 (Homo sapiens, UniProt P30542).
T6 sequence (P30542 whole entry): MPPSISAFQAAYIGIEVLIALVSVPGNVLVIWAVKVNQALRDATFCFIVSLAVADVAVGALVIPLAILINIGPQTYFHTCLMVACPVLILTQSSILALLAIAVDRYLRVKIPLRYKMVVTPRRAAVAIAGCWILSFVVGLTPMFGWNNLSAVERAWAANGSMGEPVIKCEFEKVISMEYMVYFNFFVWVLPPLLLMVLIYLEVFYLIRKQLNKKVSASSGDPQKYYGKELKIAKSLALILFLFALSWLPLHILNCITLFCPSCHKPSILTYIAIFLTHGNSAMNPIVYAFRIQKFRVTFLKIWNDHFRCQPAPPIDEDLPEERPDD
Further: assay procedure not described here.

D(1A) dopamine receptor, sequence (P21728 whole entry): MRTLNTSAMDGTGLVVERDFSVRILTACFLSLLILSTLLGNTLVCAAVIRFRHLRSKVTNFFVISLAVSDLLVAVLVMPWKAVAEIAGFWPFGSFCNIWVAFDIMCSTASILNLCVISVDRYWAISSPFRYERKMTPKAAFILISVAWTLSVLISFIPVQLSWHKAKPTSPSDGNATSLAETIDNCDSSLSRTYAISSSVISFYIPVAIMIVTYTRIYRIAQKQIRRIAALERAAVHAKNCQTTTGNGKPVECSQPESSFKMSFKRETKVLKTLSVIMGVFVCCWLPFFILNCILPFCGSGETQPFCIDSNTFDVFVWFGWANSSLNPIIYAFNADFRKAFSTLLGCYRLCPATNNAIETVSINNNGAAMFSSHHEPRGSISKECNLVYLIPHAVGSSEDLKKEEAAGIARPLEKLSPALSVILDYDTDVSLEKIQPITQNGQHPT
Synaptic vesicular amine transporter, sequence (Q01827 whole entry): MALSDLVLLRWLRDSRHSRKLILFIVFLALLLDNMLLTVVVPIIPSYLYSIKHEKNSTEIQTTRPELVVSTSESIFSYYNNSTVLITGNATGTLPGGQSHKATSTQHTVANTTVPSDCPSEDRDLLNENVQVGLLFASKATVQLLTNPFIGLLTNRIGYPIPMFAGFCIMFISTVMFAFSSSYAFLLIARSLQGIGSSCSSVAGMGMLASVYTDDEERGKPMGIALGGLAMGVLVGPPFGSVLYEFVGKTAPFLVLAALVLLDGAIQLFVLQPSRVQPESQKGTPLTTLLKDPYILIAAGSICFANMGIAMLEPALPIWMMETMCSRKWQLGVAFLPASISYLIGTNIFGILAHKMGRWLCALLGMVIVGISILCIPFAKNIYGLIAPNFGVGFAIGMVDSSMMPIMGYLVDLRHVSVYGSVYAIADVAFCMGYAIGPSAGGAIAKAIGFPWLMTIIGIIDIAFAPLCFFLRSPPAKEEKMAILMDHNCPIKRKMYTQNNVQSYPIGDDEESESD

`CCN1CCC[C@H]1CNC(=O)c1cc(S(N)(=O)=O)ccc1OC` [LEVOSULPIRIDE] came in with an AC50 at D(1A) dopamine receptor of 12 µM. On to `[H]/N=C(/N)c1ccc(NCc2nc3cc(C(=O)N(CCC(=O)O)c4ccccn4)ccc3n2C)cc1` [DABIGATRAN], for which the AC50 on Estrogen receptor [1] and on Estrogen receptor [2] was over 30 µM throughout. Take `CCNC(C)Cc1cccc(C(F)(F)F)c1` (stereo not given) [FENFLURAMINE]: in [3], the AC50 turned out to be 3.71 µM. In other words, the single-digit micromolar range. For `CC(C)c1c(C(=O)Nc2ccccc2)c(-c2ccccc2)c(-c2ccc(F)cc2)n1CC[C@@H](O)C[C@@H](O)CC(=O)O` [ATORVASTATIN], the AC50 in test [4] is over 30 µM; in [5], over 10 µM.

As to `Nc1nc2ccc(OC(F)(F)F)cc2s1` [RILUZOLE], the AC50 in [6] and in [7] was over 30 µM in each case. As for BIVALIRUDIN, the AC50 (in test [8]; on Adenosine receptor A1) was over 30 µM in each case.

The record behind these values is ChEMBL document CHEMBL5291721, “A preclinical secondary pharmacology resource illuminates target-adverse drug reaction associations of marketed drugs” (Nat Commun, 2023).
